System: T cells
Experiment: Effect of AHR agonist on Th17 polarization (intracellular IL-17 after PMA/Ionomycin)
Format: cell-based, human
Description: FIG. 8. T cells were activated with CD3/CD5 (upper) or CD3/ICOS (lower) figure and expanded in presence of standard Th17-polarizing cytokines/antibodies (cytokines package), or with 100 nM FICZ and IL-1B and IL-6. At day 13 cultures were stimulated with PMA/Ionomycin for 4-5 hours before assessment of IL-17A and IL-17F expression. Cytograms show intracellular expression of the cytokines.
Protocol permutation: T cells were activated with DYNABEADS® CD3/CD5, DYNABEADS® CD3/ICOS, or DYNABEADS® CD3/CD28 with equal signal strength and stoichiometry. Th17 polarization was facilitated by addition of i) cytokines (TGF-β, IL-23, IL-6, IL-1B) and αIL-4/α-IFN-γ neutralizing antibodies or ii) the AHR agonist FICZ plus IL-6, IL-1βa. Th17 polarization was assessed by intracellular staining of IL-17 and IFN-γ following PMA/Ionomycin activation of polarized T cells (FIG. 8).

SMILES: O=Cc1c2c(cc3c1=Nc1ccccc1-3)=Nc1ccccc1-2 [FICZ, 6-formylindolo [3,2-b]carbazole]
- Activity on T cells costimulated through CD5 (100 nM FICZ plus IL-1β and IL-6, CD3/CD5 beads, day 13): promising activity
- Activity on T cells costimulated through ICOS (100 nM FICZ plus IL-1β and IL-6, CD3/ICOS beads, day 13): not
- IL-17 producing cells compared to standard polarizing conditions (FICZ, IL-1β and IL-6 protocol): fewer

— patent US20250236840A1, “SELECTIVE EXPANSION OF DIFFERENT SUBPOPULATIONS OF T CELLS BY THE ALTERATION OF CELL SURFACING SIGNALS AND SIGNAL RATIO” (LIFE TECHNOLOGIES AS, priority 2015, published 2025)
